Results from patent US10676492B2, “Branched amphiphilic lipids” (UNIVERSITÉ DE BRETAGNE OCCIDENTALE, priority 2015, dated 2020).

Experiments:
[1] = Structural organisation study via 31P NMR (Hahn echo) of hydrated lipids; type: physicochemical; details: hydrated medium, ambient temperature
Method: A stock solution of a cationic lipid is prepared in the chloroform. A volume of stock solution corresponding to a weight in lipids between 50 mg and 100 mg is pipette into a haemolysis tube and the chloroform is evaporated under of flow of N2 in such a way as to obtain a lipid film. 500 μL of water is then added and the mixture is subjected to ultrasound until complete dispersion of the lipid film. The mixture is lysed for one night. A volume of distilled water is then added in order to obtain a solution with a concentration of 100 mg·mL^−1. In order to ensure the balance of the sample, three cycles −198° C./50° C. are carried out: the sample is placed at −198° C. (liquid nitrogen) for 5 min, then the sample is placed in a water bath at 50° C. for 30 min and is vortexed.
The NMR ^31P spectra were acquired with a Hahn echo sequence (90°-τ-180°-τ-acq). The acquisition parameters were as follows: spectral window of 200 KHz, a pulse π/2 with a duration of […], a recycling period of 5 s and an echo period of 40 μs. The number of acquisitions depends on the volume of the sample and the acquisition temperature, and is between 128 and 1700 scans. The temperature of the sample is balanced for 30 min before the start of the acquisition. Lorentzian noise is filtered over the entire spectral window before the Fourier transform on the top of the echo. […]

[2] = Measurement of the size and zeta potential of liposomes (Zetasizer Nano ZS); type: physicochemical; details: liposomal solution in water, 25° C.
Method: The cationic lipids were formulated in a liposomal solution by the method of hydration of a lipid film. Initially, a fraction of a concentrated solution of the cationic lipid is placed in a glass tube and evaporated to give a thin lipid film. 1 mL of water is then added to the film and the film is hydrated for 3 days at 4° C. The solution is then vortexed (1 min) and placed under ultrasound (30 to 60 min) at 45 kHz. Then 150 μL of the liposomal solution is diluted in 1.5 mL of sterile water. After filtration ([…]) of the liposomal solution, the size and the zeta potential of liposomes and lipoplexes are determined.
The size and zeta potential (ξ) of the liposomes and of the lipoplexes were measured with a Zetasizer Nano ZS (Malvern Instruments) at 25° C. after a suitable dilution of the formulations. For the measurements of the lipoplexes, each test used […] of plasmid DNA in water with the required amount of cationic lipid studied in order to form lipoplexes with charge ratios ranging from 0.5 to 8.0. For the measurements of the liposomes, a quantity of lipid equivalent to a mixture having a 1.0 charge ratio in water was used.

structure of the supramolecular aggregates (self-organisation) [1]: lamellar form
PdI [2]: 0.26
Size (nm) [2]: 94 nm
Zeta Potential (mV) [2]: +54 mV
SMILES: CCCCCCCC/C=C/CCCCCCCCOP(=O)(NCC[N+](C)(C)C)OCCCCCCCC/C=C/CCCCCCCC.[I-] [Compound I-1]
